According to ChEMBL document CHEMBL1155391, “SelSA, selenium analogs of SAHA as potent histone deacetylase inhibitors” (Bioorg Med Chem Lett, 2010):

Key:
HeLa = assay: Selectivity ratio of IC50 for drug to SAHA against human HDAC in HeLa cell nuclear extract; format: cell-based
[1] = biological target: Histone deacetylase (Homo sapiens) (UniProt Q13547+O15379+Q9UBN7+Q92769+Q9UQL6+Q8WUI4+Q9BY41+Q96DB2+P56524+Q9UKV0+Q969S8); conditions: HeLa, at 50 nM
Description: Inhibition of human HDAC in human HeLa cell nuclear extract at 50 nM after 15 mins by colorimetric assay

Histone deacetylase = assay: Inhibition of human HDAC in human HeLa cell nuclear extract after 15 mins by colorimetric assay; format: cell-based

SMILES	Ratio IC50 (HeLa)	inhibition [1] [%]	IC50 (Histone deacetylase) [nM]
O=C(CCCCC[Se][Se]CCCCCC(=O)Nc1ccccc1)Nc1ccccc1	> 20	81	
N#C[Se]CCCCCC(=O)Nc1ccccc1	20	95	8.9
